Reference: US8916183B2, “Pesticidal compositions and processes related thereto” (priority 2012, dated 2014)

Key:
[1] = test system: Corn Earworm (CEW) (Helicoverpa zea); assay: Bioassay on corn earworm (CEW), 128-well diet tray assay; format: in vivo; conditions: Helicoverpa zea; corn earworm, 50 μg/cm^2; read-out: % Mortality CEW 50 μg/cm^2
Procedure: (§1) Certain molecules disclosed in this document were tested against BAW and CEW using procedures described in the following examples. In the reporting of the results, the “BAW & CEW Rating Table” was used (See Table Section).
Bioassays on CEW (Helicoverpa zea)
Bioassays on CEW were conducted using a 128-well diet tray assay. […] Trays were covered with a clear self-adhesive cover and held at 25° C., 14:10 light-dark for five to seven days. Percent mortality was recorded for the larvae in each well; activity in the eight wells was then averaged. The results are indicated in the table entitled “Table 5: Biological Results” (See Table Section).

[2] = test system: Beet Armyworm (BAW) (Spodoptera exigua); assay: Bioassay on beet armyworm (BAW), 128-well diet tray assay; format: in vivo; conditions: Spodoptera exigua; beet armyworm, 50 μg/cm^2; read-out: % Mortality BAW 50 μg/cm^2
Procedure: as §1
Bioassays on BAW (Spodoptera exigua)
Bioassays on BAW were conducted using a 128-well diet tray assay. […] Trays were covered with a clear self-adhesive cover and held at 25° C., 14:10 light-dark for five to seven days. Percent mortality was recorded for the larvae in each well; activity in the eight wells was then averaged. The results are indicated in the table entitled “Table 5: Biological Results” (See Table Section).

Row | Compound | mortality at 50 µg/cm2 [1] [%] | mortality at 50 µg/cm2 [2] [%]
1 | COc1ccc(N2C(=O)CS/C2=N\N=C\c2ccc(-c3ncn(-c4ccc(OC(F)(F)F)cc4)n3)cc2)c(C)c1 [Compound 114C] | 50 to 100 | 50 to 100
2 | COc1ccc(N2C(=O)CS/C2=N\N=C\c2ccc(-c3ncn(-c4ccc(OC(F)(F)F)cc4)n3)cc2)cc1 [Compound 115C] | 0 | 0 to 50
3 | CCOc1ccccc1N1C(=O)CS/C1=N\N=C\c1ccc(-c2ncn(-c3ccc(OC(F)(F)F)cc3)n2)cc1 [Compound 116C] | 50 to 100 | 50 to 100
4 | CC(C)c1ccccc1N1C(=O)CS/C1=N\N=C\c1ccc(-c2ncn(-c3ccc(C(F)(F)F)cc3)n2)cc1 [Compound 120C] | 50 to 100 | 50 to 100
5 | C/C(=N\N=C1/SCC(=O)N1c1ccccc1CC(C)C)c1ccc(-c2ncn(-c3ccc(OC(F)(F)F)cc3)n2)cc1 [Compound 122C] | 50 to 100 | 50 to 100
6 | CCc1cccnc1N1C(=O)CS/C1=N\N=C\c1ccc(-c2ncn(-c3ccc(OC(F)(F)F)cc3)n2)cc1 [Compound 123C] | 50 to 100 | 50 to 100
7 | O=C1CS/C(=N\N=C\c2ccc(-c3ncn(-c4ccc(OC(F)(F)F)cc4)n3)cc2)N1c1ccccc1OC(F)(F)F [Compound 124C] | 50 to 100 | 50 to 100
8 | CC(C)(C)c1ccccc1N1C(=O)CS/C1=N\N=C\c1ccc(-c2ncn(-c3ccc(OC(F)(F)F)cc3)n2)cc1 [Compound 125C] | 50 to 100 | 50 to 100
9 | O=C1CS/C(=N\N=C\c2ccc(-c3ncn(-c4ccc(OC(F)(F)F)cc4)n3)cc2)N1c1ccccc1OC(F)F [Compound 126C] | 50 to 100 | 50 to 100
10 | CC1S/C(=N\N=C\c2ccc(-c3ncn(-c4ccc(OC(F)(F)F)cc4)n3)cc2)N(c2ccccc2C2CC2)C1=O (stereo not shown) [Compound 127C] | 50 to 100 | 50 to 100
11 | CCCc1ccccc1N1C(=O)C(C)S/C1=N\N=C\c1ccc(-c2ncn(-c3ccc(OC(F)(F)F)cc3)n2)cc1 (stereo not shown) [Compound 128C] | 50 to 100 | 50 to 100
12 | CC1S/C(=N\N=C\c2ccc(-c3ncn(-c4ccc(OC(F)(F)F)cc4)n3)cc2)N(c2c(Cl)cccc2Cl)C1=O (stereo not shown) [Compound 129C] | 50 to 100 | 50 to 100
13 | CC1S/C(=N\N=C\c2ccc(-c3ncn(-c4ccc(OC(F)(F)F)cc4)n3)cc2)N(c2c(F)cccc2Cl)C1=O (stereo not shown) [Compound 130C] | 50 to 100 | 50 to 100
14 | CC(C)c1ccccc1N1CCS/C1=N\N=C\c1ccc(-c2ncn(-c3ccc(C(F)(F)F)cc3)n2)cc1 [Compound 134C] | 50 to 100 | 50 to 100
15 | Fc1cccc(Cl)c1N1CCS/C1=N\N=C\c1ccc(-c2ncn(-c3ccc(OC(F)(F)F)cc3)n2)cc1 [Compound 143C] | 50 to 100 | 50 to 100
16 | FC(F)(F)Oc1ccc(-n2cnc(-c3ccc(/C=N/N=C4\SCCN4c4ccccc4-c4ccccc4)cc3)n2)cc1 [Compound 144C] | 50 to 100 | 50 to 100
17 | Fc1cccc(F)c1N1CCS/C1=N\N=C\c1ccc(-c2ncn(-c3ccc(OC(F)(F)F)cc3)n2)cc1 [Compound 148C] | 50 to 100 | 50 to 100
18 | FC(F)Oc1ccccc1N1CCS/C1=N\N=C\c1ccc(-c2ncn(-c3ccc(OC(F)(F)F)cc3)n2)cc1 [Compound 152C] | 50 to 100 | 50 to 100
19 | FC(F)(F)Oc1ccc(-n2cnc(-c3ccc(/C=N/N=C4\SCCN4c4ccccc4OC(F)(F)F)cc3)n2)cc1 [Compound 153C] | 50 to 100 | 0
20 | CC1CS/C(=N\N=C\c2ccc(-c3ncn(-c4ccc(OC(F)(F)F)cc4)n3)cc2)N1c1c(F)cccc1F (stereo not shown) [Compound 159C] | 50 to 100 | 50 to 100
21 | CC1CS/C(=N\N=C\c2ccc(-c3ncn(-c4ccc(OC(F)(F)F)cc4)n3)cc2)N1c1c(Cl)cccc1C(F)(F)F (stereo not shown) [Compound 160C] | 50 to 100 | 50 to 100
22 | CCc1cc(OC)ccc1N1/C(=N/N=C/c2ccc(-c3ncn(-c4ccc(OC(F)(F)C(F)(F)F)cc4)n3)cc2)SCC1(C)O (stereo not shown) [Compound 264C] |  | 50 to 100
